Results on 71 compounds are retold here after PubChem BioAssay AID179 (DTP/NCI, 2004).

In this assay the test system is CEM cells HIV-1 protection, formazan growth assay. The assay is described as follows: NCI AIDS Antiviral Assay. The note with it: for IC50: measured here: growth of uninfected CEM cells. In outline: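 Five concentrations of each compound were applied to infected and uninfected human CEM cells. Protection from HIV-1 was judged from growth measured with a soluble formazan assay.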

The source made the active and inactive calls.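 The calls were made as follows: active = compounds giving half or more protection of infected cells from virus-caused growth loss, again on retest; inactive = the rest.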

For `CC1COB(c2ccccc2)OCC(C)N1CNC(=O)C1=C(O)C2(O)C(O)=C3C(=O)C4C(O)=CC=CC4C(C)(O)C3CC2C(N(C)C)C1=O` (stereo not drawn), the EC50 is 15.1 µM and the IC50 came to 19.5 µM.
Turning to `N#CC(C#N)=C(N)/C(C#N)=C\c1ccnc2ccccc12`, the EC50 was above 26.3 µM and the IC50 worked out at 4.07 µM.
On to `CC(C)(C)C1=CC(=C(c2ccccc2)c2ccccc2)C=C(C(C)(C)C)C1=O`, for which the EC50 is above 47.9 µM and the IC50 is above 47.9 µM.
As to `N#C/C(=C/Sc1ccccc1)C(=O)O`, the outcome was inactive.
In the case of `CCCCCCCCCCCCC1C(=O)NCCNCCCNCCNC1=O`, the EC50 is above 200 µM and the IC50 was 10 µM.
The matching figures for `Cc1nc2c(c(=O)[nH]1)OCN(C)C2`: above 200 µM and 148 µM.
For the compound `CC(=O)[O-].COc1cccc(/C=N/[N-]C(=O)c2ccncc2)c1.[OH3+].[OH3+].[OH3+].[Zn+2]`, the EC50 was above 200 µM and the IC50 is 3.89 µM.
Take `CCOC(=O)c1ccccc1NN1C(=O)C=CC1=O`: the EC50 was above 347 µM and the IC50 amounted to 52.5 µM.
`CCCCCCCCCCCCCCCCOC[C@@H](COC1OC(CO)C(O)C(O)C1O)OCCCCCCCCCCCCCCCC` (stereo partly drawn): the EC50 was above 4.07 µM and the IC50 is above 4.07 µM.
As to `CC[C@@H]1CN2CCc3c([nH]c4ccccc34)[C@@H]2C[C@@H]1/C(=C\OC)C(=O)OC`, the EC50 was above 64.6 µM and the IC50 was above 64.6 µM.
Regarding `NC(Cc1cnc[nH]1)C(=O)NC(Cc1ccc(O)c(O)c1)C(=O)NCC(=O)N/C=C\c1c[nH]c2cc(Br)ccc12` (stereo not drawn), the EC50 is above 81.3 µM and the IC50 is above 81.3 µM.
As for `CC(=O)Nc1ccc(C(=O)n2[nH]c(C)c(/C=C3\C(=O)C=Cc4ccccc43)c2=O)cc1`, the EC50 is above 87.1 µM and the IC50 was found to be 42.7 µM.
As for `N#Cc1ccc(/C=C/C(=O)c2ccccc2)cc1`, the EC50 is above 30.9 µM and the IC50 is 14.5 µM.
In the case of `COc1cc2c(cc1O)-c1[nH]ncc1CCC2`, the EC50 is above 43.7 µM and the IC50 is above 43.7 µM.
For `Nc1nc(Cl)c(CO)c(NCC2(CO)CC(CCc3ccccc3)C2)n1` (stereo not drawn), the EC50 was above 20 µM and the IC50 worked out at 0.129 µM.
On the same counts, the results for `Cc1cc(S(=O)(=O)NC2=NC(c3ccccc3)c3cc(Cl)ccc3N2)c(S)cc1Cl` (stereo not drawn) are above 200 µM and above 200 µM.
For the compound `Cc1ccc(NC(=O)CC(=O)n2nc(C)c(N=Nc3ccccc3C(=O)O)c2C)cc1`, the EC50 is above 427 µM and the IC50 is above 427 µM.
On to `CCCCCC(O)C1C(=O)OC(C)C(O)/C=C/C=C/C=C/C=C\C=C(\C)C(O)CC(O)CC(O)CC(O)CC(O)CC(O)CC1O` (stereo not drawn), for which the EC50 is above 200 µM and the IC50 is above 200 µM.
With `Cc1cc2c(cc1C)C(=O)C1(C2)Cc2cc3c(cc2C1=O)CCC3` (stereo not drawn), the EC50 is above 100 µM and the IC50 was above 100 µM.
With `COC(=O)C1=C(C(=O)OC)C2=S(SC3=C2CCCC3)S1` (stereo not drawn), the result was inactive.
For the compound `COC(=O)CCC(=O)Nc1cc(C)ccc1C`, the EC50 was above 1070 µM and the IC50 is above 1070 µM.
On to `O=C1CC(NC(=O)C(F)(F)F)c2c1csc2Br` (stereo not drawn), for which the EC50 was above 200 µM and the IC50 came to 115 µM.
With `Cc1cccc2c1Oc1cc(Cl)ccc1C2NC(=O)CN(C)C` (stereo not drawn), the EC50 is above 77.6 µM and the IC50 was determined as 72.4 µM.
The matching figures for `O=C(/C=C/NC(=O)OCc1ccccc1)OCc1ccccc1`: above 200 µM and above 200 µM.
Take `O=P(O)(O)CCCNO`: the EC50 was above 200 µM and the IC50 is above 200 µM.
With `CC1OC(O[C@@H]2C=C3CC[C@@H]4[C@H](CC[C@]5(C)[C@@H](c6ccc(=O)oc6)CC[C@]45O)[C@@]3(C)CC2)C(O)C(O)C1O` (stereo partly drawn), the EC50 is above 2 µM and the IC50 is 0.00468 µM.
On the same counts, the results for `CC(=O)Oc1ccc(C[C@H]2COC(=O)[C@@H]2Cc2ccc(OC(C)=O)c(OC(C)=O)c2)cc1OC(C)=O` are above 200 µM and 17.4 µM.
As for `COC(=O)CCN1c2ccccc2Sc2ccccc21`, the EC50 was above 66.1 µM and the IC50 is above 66.1 µM.
As for `CCCCCCCCCCCCCCCc1cc(O)ccc1N=O`, the EC50 is above 200 µM and the IC50 turned out to be 2.57 µM.
On to `N.N.N.N.O=C([O-])C(Cl)Cl.O=C([O-])C(Cl)Cl.[Co+3].[O-][Cl+3]([O-])([O-])[O-]`, for which the result was inactive.
As for `Cc1c(N(Cc2ccccc2)Cc2ccccc2)nc(S(C)(=O)=O)nc1S(C)(=O)=O`, the outcome was inactive.
As for `O=C1c2ccccc2N2OC3(N4CCCC4)CCCCC3C12c1ccccc1` (stereo not drawn), the EC50 was above 10 µM and the IC50 was above 10 µM.
For the compound `Cc1c([N+](=O)[O-])c(=O)oc2c1ccc1occc(=O)c12`, the EC50 was above 132 µM and the IC50 is 117 µM.
The matching figures for `COC(=O)C1CC23CC1(OC(C)=O)CCC2c1ccc(OC)cc1C3=O` (stereo not drawn): above 61.7 µM and above 61.7 µM.
The matching figures for `CNC(=S)NNC1=NCCCCN1`: above 200 µM and 110 µM.
The matching figures for `CC(=O)NNc1nc(C)c(C(=O)NNC(=O)C(=O)Nc2cccc(C(C)=O)c2)s1`: above 44.7 µM and above 44.7 µM.
Turning to `CC(C)OP(=O)(OC(C)C)C(C(C)C)N(C)/C(F)=N/C(F)(F)F` (stereo not drawn), the EC50 was above 200 µM and the IC50 is above 200 µM.
Regarding `O=C1C=CC2(CCC23C=CC(=O)O3)O1` (stereo not drawn), the EC50 is above 135 µM and the IC50 is 7.94 µM.
For `CCOC(=O)C(=O)Nc1ccc(Cl)cc1C`, the EC50 was above 389 µM and the IC50 amounted to 331 µM.
For the compound `O=C(O)c1ccccc1NS(=O)(=O)c1ccc(Cl)cc1`, the outcome was inactive.
Turning to `CO/C=C1\CCC2c3c(c4ccccc4n3C)CC1N2Cc1ccccc1` (stereo not drawn), the EC50 is above 14.5 µM and the half-inhibitory concentration (IC50) is 8.13 µM.
Take `CC1(C)Cc2c(oc3ncnc(N)c23)CS1`: the EC50 is above 288 µM and the IC50 is above 288 µM.
Take `Cc1n[nH]c(=O)n1C1CC1`: the EC50 is above 200 µM and the IC50 was above 200 µM.
Turning to `CC(C)N1CCN(C(C)C)CCN(C(C)C)CC1.[O]=[Mo](=[O])=[O]`, the EC50 was above 100 µM and the IC50 came to 75.9 µM.
In the case of `Nc1nc(N)c(-c2ccccc2)c(C(=O)Nc2ccc(Cl)c(Cl)c2)n1`, the EC50 was above 479 µM.
For `C=CCC12CC(=O)CCC1c1ccc(OC)cc1C2=O` (stereo not drawn), the EC50 was above 251 µM and the IC50 stood at 141 µM.
`Nc1nc(Cl)cc(NCC2(CO)CC(Cc3ccccc3)C2)n1` (stereo not drawn): the EC50 is above 20 µM and the IC50 came out at 0.174 µM.
Regarding `Cn1c(=O)cc(C=Nc2ccc(-c3ccccc3)cc2)c2ccccc21`, the EC50 was above 100 µM and the IC50 amounted to 2 µM.
On the same counts, the results for `O=C(O)c1cc(=O)c2c(OCC(O)COc3cccc4oc(C(=O)O)cc(=O)c34)cccc2o1` are above 200 µM and above 200 µM.
On the same counts, the results for `CC[C@@]1(C[C@H]2C[C@@]3(C(=O)OC)c4[nH]c5ccccc5c4CCN3C2=S)COC2(CCCCC2)O1` are above 200 µM and above 200 µM.
The matching figures for `O=S(=O)(Oc1cccc2ccccc12)C(F)(F)F`: above 200 µM and 120 µM.
In the case of `O=c1[nH]c(=O)n(C2CC(O)C(CO)O2)c2nc3ccc4cc5ccccc5cc4c3nc12` (stereo not drawn), the EC50 was above 50.1 µM and the IC50 stood at 39.8 µM.
Regarding `O=[N+]([O-])c1ccc(S(=O)(=O)NN2CCOCC2)cc1`, the EC50 was above 126 µM and the IC50 was above 126 µM.
As for `Cc1nnc(CC#N)n1NC(=O)CC#N`, the EC50 was above 200 µM and the IC50 was above 200 µM.
Take `CC(=O)Nc1ccc(/C=C(\NC(=O)c2ccccc2)c2nc3ccc4c(c3[nH]2)C(=O)c2ccccc2C4=O)cc1`: the outcome was inactive.
For the compound `O=c1oc2cccnc2n1CCN1CCN(c2ccc(Oc3ccccc3)cc2)CC1`, the EC50 is above 200 µM and the IC50 was 52.5 µM.
On the same counts, the results for `c1csc(-c2cscc2-c2ccsc2)c1` are above 200 µM and 38.9 µM.
`CC1=C(C)C2(OC1=O)C(O)C(C)[C@]1(O)CCC3C4CC=C5CC=CC(=O)[C@]5(C)C4C[C@@]2(O)[C@@]31C` (stereo partly drawn): the result was inactive.
For the compound `CN(N)C(=O)NCCCl`, the EC50 is above 200 µM and the IC50 is above 200 µM.
As to `O=Cc1[nH]c(=O)[nH]c(=O)c1C(=O)O`, the EC50 is above 200 µM and the IC50 was above 200 µM.
For the compound `Cc1cc(C)c(C)c(-n2[nH]c(=O)n(C)c2=O)c1C`, the EC50 is above 200 µM and the half-maximal inhibitory concentration (IC50) is above 200 µM.
On to `COc1ccc(-c2c(C(=O)Nc3ccccc3)c(-c3ccccc3)n(C3OC(CO)C(O)C(O)C3O)c(=S)c2C#N)cc1` (stereo not drawn), for which the EC50 was above 200 µM and the IC50 worked out at 107 µM.
Consider `CC(=O)OC1C(COC(N)=O)OC(n2c(-c3ccc(C)cc3)cc(-c3ccccc3)c(C#N)c2=O)C(OC(C)=O)C1OC(C)=O` (stereo not drawn), for which the EC50 was above 11.5 µM and the IC50 is above 11.5 µM.
As for `O=c1c(=[n+]2ccc(=C([O-])c3ccccc3)cc2)/c(=N/S(=O)(=O)c2ccccc2)c(=O)c2ccccc12`, the EC50 is above 200 µM and the IC50 worked out at 6.17 µM.
As to `O=C1c2ccccc2N2Oc3ccccc3C12c1ccccc1` (stereo not drawn), the EC50 was above 45.7 µM and the IC50 was above 45.7 µM.
Regarding `COc1cc(C2C3=C(CCCC3=O)N(c3ccc(C)cc3)C3=C2C(=O)CCC3)c([N+](=O)[O-])cc1OC`, the EC50 was above 200 µM and the IC50 was found to be 145 µM.
As for `COCC(C)(C)N=CN1CCc2ccccc2C1`, the EC50 was above 1000 µM and the half-inhibitory concentration (IC50) was above 1000 µM.
Regarding `CC(C)(C)[Si](C)(C)OCC1OC(n2ccc(=O)[nH]c2=O)C(O[Si](C)(C)C(C)(C)C)/C1=C/C#N` (stereo not drawn), the EC50 is above 200 µM and the IC50 came out at 8.13 µM.
With `C[C@@]12CCC[C@@H](OC(=O)c3ccc(Br)cc3)[C@@H](C1)C(=O)CC2`, the result was inactive.
With `C=C(C)C(=O)O[C@H]1C[C@@]23O[C@@H]2CCC(=C[C@H]2OC(=O)C(=C)[C@H]12)COC3O` (stereo partly drawn), the EC50 is above 195 µM and the IC50 was found to be 38 µM.
The matching figures for `Nc1nc(Cl)cc(NCC2(CO)CC(=O)C2)n1`: above 200 µM and above 200 µM.
